Legend:
blackgrass = experiment: Test Example 5: herbicidal effect by foliage application, plastic box (Table 20, symbol J); type: in vivo, blackgrass (Alopecurus myosuroides); conditions: foliage application, 320 g/ha, three weeks after application
Summary of the method: (§1)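 Foliar spray test: emulsion formulation diluted in water to a set application rate, sprayed onto 14-day-old plants raised in diluvial soil at 25° C to 30° C under glass. Both herbicidal effect and crop effect rated visually three weeks later.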

windgrass = experiment: Test Example 5: herbicidal effect by foliage application, plastic box (Table 20, symbol L); type: in vivo, windgrass (Apera spica-venti); conditions: foliage application, 320 g/ha, three weeks after application
Summary of the method: as §1

Italian ryegrass = experiment: Test Example 5: herbicidal effect by foliage application, plastic box (Table 20, symbol K); type: in vivo, Italian ryegrass (Lolium multiflorum); conditions: foliage application, 320 g/ha, three weeks after application
Summary of the method: as §1

southern crabgrass [1] = experiment: Test Example 5: herbicidal effect by foliage application, plastic box (Table 20, symbol F); type: in vivo, southern crabgrass (Digitaria ciliaris); conditions: foliage application, 320 g/ha, three weeks after application
Summary of the method: as §1

velvetleaf [2] = experiment: Test Example 5: herbicidal effect by foliage application, plastic box (Table 20, symbol M); type: in vivo, velvetleaf (Abutilon theophrasti); conditions: foliage application, 320 g/ha, three weeks after application
Summary of the method: as §1

oval-leafed pondweed [3] = experiment: Test Example 1: herbicidal activity, application before weed generation under submerged conditions (Table 16, symbol C); type: in vivo, oval-leafed pondweed (Monochoria vaginalis); conditions: amount of applied herbicide 320 g/ha
Summary of the method: (§2)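 Alluvial soil was flooded to 4 cm depth, weed seeds were sown mixed and 2.5-leaf rice seedlings were transplanted. On sowing day, the compound's emulsion, diluted in water to a set dose, was applied to the water surface. Plants grew at 25–30 °C and were scored 0–5 after three weeks.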

rice flat sedge = experiment: Test Example 3: herbicidal effect by foliage application, Wagner pot (Table 18, symbol E); type: in vivo, rice flat sedge (Cyperus iria); conditions: 320 g/ha
Summary of the method: (§3)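 Plants were sown in alluvial soil held under 0.1–0.5 cm standing water and grown 14 days in a greenhouse at 25–30 °C. An emulsifiable formulation, water-diluted to the set dose, was then sprayed onto the foliage, and effects were scored three weeks later using previously defined criteria.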

late watergrass [4] = experiment: Test Example 2: herbicidal activity, application during weed generation under submerged conditions (Table 17, symbol A); type: in vivo, late watergrass (Echinochloa oryzicola); conditions: AAH 320 g/ha; application during weed generation, submerged conditions
Summary of the method: (§4)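 Herbicide emulsion, diluted with water to the chosen amount, is applied onto 4 cm floodwater over alluvial soil where the weeds were co-sown and raised at 25–30° C. Application timing: 1–2 leaves. Assessment: three weeks afterwards.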

barnyard grass [5] = experiment: Test Example 3: herbicidal effect by foliage application, Wagner pot (Table 18, symbol H); type: in vivo, barnyard grass (Echinochloa crus-galli); conditions: 320 g/ha
Summary of the method: as §3

persian speedwell = experiment: Test Example 5: herbicidal effect by foliage application, plastic box (Table 20, symbol R); type: in vivo, Persian speedwell (Veronica persica); conditions: foliage application, 320 g/ha, three weeks after application
Summary of the method: as §1

Chinese sprangletop = experiment: Test Example 3: herbicidal effect by foliage application, Wagner pot (Table 18, symbol D); type: in vivo, chinese sprangletop (Leptochloa chinensis); conditions: 320 g/ha
Summary of the method: as §3

Japanese bulrush [6] = experiment: Test Example 2: herbicidal activity, application during weed generation under submerged conditions (Table 17, symbol B); type: in vivo, Japanese bulrush (Schoenoplectus juncoides); conditions: AAH 320 g/ha; application during weed generation, submerged conditions
Summary of the method: as §4

oval-leafed pondweed [7] = experiment: Test Example 2: herbicidal activity, application during weed generation under submerged conditions (Table 17, symbol C); type: in vivo, oval-leafed pondweed (Monochoria vaginalis); conditions: AAH 320 g/ha; application during weed generation, submerged conditions
Summary of the method: as §4

late watergrass [8] = experiment: Test Example 1: herbicidal activity, application before weed generation under submerged conditions (Table 16, symbol A); type: in vivo, late watergrass (Echinochloa oryzicola); conditions: amount of applied herbicide 320 g/ha
Summary of the method: as §2

wild oat = experiment: Test Example 5: herbicidal effect by foliage application, plastic box (Table 20, symbol I); type: in vivo, wild oat (Avena fatua); conditions: foliage application, 320 g/ha, three weeks after application
Summary of the method: as §1

lambsquarters [9] = experiment: Test Example 5: herbicidal effect by foliage application, plastic box (Table 20, symbol O); type: in vivo, lambsquarters (Chenopodium album); conditions: foliage application, 320 g/ha, three weeks after application
Summary of the method: as §1

green foxtail [10] = experiment: Test Example 5: herbicidal effect by foliage application, plastic box (Table 20, symbol G); type: in vivo, green foxtail (Setaria viridis); conditions: foliage application, 320 g/ha, three weeks after application
Summary of the method: as §1

barnyard grass [11] = experiment: Test Example 5: herbicidal effect by foliage application, plastic box (Table 20, symbol H); type: in vivo, barnyard grass (Echinochloa crus-galli); conditions: foliage application, 320 g/ha, three weeks after application
Summary of the method: as §1

Japanese bulrush [12] = experiment: Test Example 1: herbicidal activity, application before weed generation under submerged conditions (Table 16, symbol B); type: in vivo, Japanese bulrush (Schoenoplectus juncoides); conditions: amount of applied herbicide 320 g/ha
Summary of the method: as §2

redroot pigweed [13] = experiment: Test Example 4: herbicidal effect by soil treatment (Table 19, symbol N); type: in vivo, redroot pigweed (Amaranthus retroflexus); conditions: amount of applied herbicide 320 g/ha
Summary of the method: (§5)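 Herbicidal effect was rated 3 weeks after treatment, using the scoring criteria of an earlier test. The compound, formulated as an emulsion and diluted in water to a set herbicide amount, had been sprayed uniformly on soil over freshly sown seeds. Growth took place in a greenhouse at 25° C. to 30° C.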

green foxtail [14] = experiment: Test Example 4: herbicidal effect by soil treatment (Table 19, symbol G); type: in vivo, green foxtail (Setaria viridis); conditions: amount of applied herbicide 320 g/ha
Summary of the method: as §5

velvetleaf [15] = experiment: Test Example 4: herbicidal effect by soil treatment (Table 19, symbol M); type: in vivo, velvetleaf (Abutilon theophrasti); conditions: amount of applied herbicide 320 g/ha
Summary of the method: as §5

lambsquarters [16] = experiment: Test Example 4: herbicidal effect by soil treatment (Table 19, symbol O); type: in vivo, lambsquarters (Chenopodium album); conditions: amount of applied herbicide 320 g/ha
Summary of the method: as §5

southern crabgrass [17] = experiment: Test Example 4: herbicidal effect by soil treatment (Table 19, symbol F); type: in vivo, southern crabgrass (Digitaria ciliaris); conditions: amount of applied herbicide 320 g/ha
Summary of the method: as §5

barnyard grass [18] = experiment: Test Example 4: herbicidal effect by soil treatment (Table 19, symbol H); type: in vivo, barnyard grass (Echinochloa crus-galli); conditions: amount of applied herbicide 320 g/ha
Summary of the method: as §5

redroot pigweed [19] = experiment: Test Example 5: herbicidal effect by foliage application, plastic box (Table 20, symbol N); type: in vivo, redroot pigweed (Amaranthus retroflexus); conditions: foliage application, 320 g/ha, three weeks after application
Summary of the method: as §1

Row | Compound | herbicidal effect on blackgrass (J) (blackgrass) | herbicidal effect on windgrass (L) (windgrass) | herbicidal effect on Italian ryegrass (K) (Italian ryegrass) | herbicidal effect on southern crabgrass (F) (southern crabgrass [1]) | herbicidal effect on velvetleaf (M) (velvetleaf [2]) | Herbicidal effect, C: oval-leafed pondweed (oval-leafed pondweed [3]) | herbicidal effect on rice flat sedge (E) (rice flat sedge) | herbicidal effect rating, A: late watergrass (late watergrass [4]) | herbicidal effect on barnyard grass (H) (barnyard grass [5]) | herbicidal effect on persian speedwell (R) (persian speedwell) | herbicidal effect on Chinese sprangletop (D) (Chinese sprangletop) | herbicidal effect rating, B: Japanese bulrush (Japanese bulrush [6]) | herbicidal effect rating, C: oval-leafed pondweed (oval-leafed pondweed [7]) | Herbicidal effect, A: late watergrass (late watergrass [8]) | herbicidal effect on wild oat (I) (wild oat) | herbicidal effect on lambsquarters (O) (lambsquarters [9]) | herbicidal effect on green foxtail (G) (green foxtail [10]) | herbicidal effect on barnyard grass (H) (barnyard grass [11]) | Herbicidal effect, B: Japanese bulrush (Japanese bulrush [12]) | further results
1 | CCCC(=O)Oc1c(C)nn(C)c(=O)c1-c1c(-c2ccc(F)cc2OCC)sc2cc(C)c(C)cc12 [5-104] | 4 (Herbicidal rate of 70% or more and less than 90%) | 4 (Herbicidal rate of 70% or more and less than 90%) | 4 (Herbicidal rate of 70% or more and less than 90%) | 5 (Herbicidal rate of 90% or more (almost completely withered)) | 4 (Herbicidal rate of 70% or more and less than 90%) | 0 (Herbicidal rate of 5% or less (almost no effect)) | 4 (Herbicidal rate of 70% or more and less than 90%) | 4 (Herbicidal rate of 70% or more and less than 90%) | 5 (Herbicidal rate of 90% or more (almost completely withered)) | 5 (Herbicidal rate of 90% or more (almost completely withered)) | 5 (Herbicidal rate of 90% or more (almost completely withered)) | 4 (Herbicidal rate of 70% or more and less than 90%) | 4 (Herbicidal rate of 70% or more and less than 90%) | 4 (Herbicidal rate of 70% or more and less than 90%) | 4 (Herbicidal rate of 70% or more and less than 90%) | 4 (Herbicidal rate of 70% or more and less than 90%) | 4 (Herbicidal rate of 70% or more and less than 90%) | 4 (Herbicidal rate of 70% or more and less than 90%) | 0 (Herbicidal rate of 5% or less (almost no effect)) | 
2 | COCCOCc1ccc(-c2sc3ccc(F)cc3c2-c2c(O)c(C)nn(C)c2=O)cc1 [2-445] |  |  |  |  |  | 0 (Herbicidal rate of 5% or less (almost no effect)) |  | 3 (Herbicidal rate of 40% or more and less than 70%) |  |  |  | 0 (Herbicidal rate of 5% or less (almost no effect)) | 0 (Herbicidal rate of 5% or less (almost no effect)) | 3 (Herbicidal rate of 40% or more and less than 70%) |  |  |  |  | 0 (Herbicidal rate of 5% or less (almost no effect)) | herbicidal effect, N: redroot pigweed (redroot pigweed [13]): 5 (Herbicidal rate of 90% or more (almost completely withered)); herbicidal effect, G: green foxtail (green foxtail [14]): 5 (Herbicidal rate of 90% or more (almost completely withered)); F: southern crabgrass, herbicidal effect grade (southern crabgrass [1]): 5 (Herbicidal rate of 90% or more (almost completely withered)); herbicidal effect, M: velvetleaf (velvetleaf [15]): 3 (Herbicidal rate of 40% or more and less than 70%); herbicidal effect, O: lambsquarters (lambsquarters [16]): 4 (Herbicidal rate of 70% or more and less than 90%); M: velvetleaf, herbicidal effect grade (velvetleaf [2]): 5 (Herbicidal rate of 90% or more (almost completely withered)); herbicidal effect, F: southern crabgrass (southern crabgrass [17]): 5 (Herbicidal rate of 90% or more (almost completely withered)); herbicidal effect, H: barnyard grass (barnyard grass [18]): 4 (Herbicidal rate of 70% or more and less than 90%); N: redroot pigweed, herbicidal effect grade (redroot pigweed [19]): 5 (Herbicidal rate of 90% or more (almost completely withered)); O: lambsquarters, herbicidal effect grade (lambsquarters [9]): 5 (Herbicidal rate of 90% or more (almost completely withered)); G: green foxtail, herbicidal effect grade (green foxtail [10]): 5 (Herbicidal rate of 90% or more (almost completely withered)); H: barnyard grass, herbicidal effect grade (barnyard grass [11]): 5 (Herbicidal rate of 90% or more (almost completely withered))
3 | CCCC(=O)Oc1c(C)nn(C)c(=O)c1-c1c(-c2ccc(OC)cc2)sc2cc(C)c(C)cc12 [5-093] | 0 (Herbicidal rate of 5% or less (almost no effect)) | 0 (Herbicidal rate of 5% or less (almost no effect)) | 0 (Herbicidal rate of 5% or less (almost no effect)) | 0 (Herbicidal rate of 5% or less (almost no effect)) | 1 (Herbicidal rate of 5% or more and less than 20%) | 0 (Herbicidal rate of 5% or less (almost no effect)) | 2 (Herbicidal rate of 20% or more and less than 40%) | 2 (Herbicidal rate of 20% or more and less than 40%) | 1 (Herbicidal rate of 5% or more and less than 20%) | 0 (Herbicidal rate of 5% or less (almost no effect)) | 2 (Herbicidal rate of 20% or more and less than 40%) | 0 (Herbicidal rate of 5% or less (almost no effect)) | 0 (Herbicidal rate of 5% or less (almost no effect)) | 2 (Herbicidal rate of 20% or more and less than 40%) | 0 (Herbicidal rate of 5% or less (almost no effect)) | 3 (Herbicidal rate of 40% or more and less than 70%) | 0 (Herbicidal rate of 5% or less (almost no effect)) | 0 (Herbicidal rate of 5% or less (almost no effect)) | 0 (Herbicidal rate of 5% or less (almost no effect)) | 

— patent US20230085307A1, “PYRIDAZINONE COMPOUND AND HERBICIDE” (NISSAN CHEMICAL CORPORATION, priority 2019, published 2023)
